Laboratory results reported in ChEMBL document CHEMBL1135144, “N-(pyrimidin-4-yl) and N-(pyridin-2-yl) phenylalanine derivatives as VLA-4 integrin antagonists” (Bioorg Med Chem Lett, 2002).

Experiment: Compound was evaluated for rate of clearance in IPRL (Isolated Perfused Rat Liver)
Assay type: ADME

Compared with `CC(C)CS(=O)(=O)c1nc(N[C@@H](Cc2ccc(NC(=O)c3c(Cl)cncc3Cl)cc2)C(=O)O)cc(C(=O)O)n1`, `CCCS(=O)(=O)c1nc(N[C@@H](Cc2ccc(NC(=O)c3c(Cl)cncc3Cl)cc2)C(=O)O)cc(C(=O)O)n1` is 6.6-fold lower in k el: 0.00164 s⁻¹ for the first, 0.00025 s⁻¹ for the second.

`CCCS(=O)(=O)c1nc(N[C@@H](Cc2ccc(NC(=O)c3c(Cl)cncc3Cl)cc2)C(=O)O)cc(OC)n1` and `CCCS(=O)(=O)c1nc(C)cc(N[C@@H](Cc2ccc(NC(=O)c3c(Cl)cncc3Cl)cc2)C(=O)O)n1` are within 1.5-fold of each other in k el: 0.00156 s⁻¹ for the first, 0.00181 s⁻¹ for the second.

Going from `O=C(Nc1ccc(C[C@H](Nc2cc(Oc3ccccc3)ncn2)C(=O)O)cc1)c1c(Cl)cncc1Cl` to `O=C(Nc1ccc(C[C@H](Nc2cc(Cc3ccccc3)ncn2)C(=O)O)cc1)c1c(Cl)cncc1Cl`, the k el rises from 0.000861 s⁻¹ to 0.00178 s⁻¹ (2.1-fold).

First: CSc1ncc(C(=O)O)c(N[C@@H](Cc2ccc(NC(=O)c3c(Cl)cncc3Cl)cc2)C(=O)O)n1
Second: CCCS(=O)(=O)c1cc(NC(Cc2ccc(NC(=O)c3c(Cl)cncc3Cl)cc2)C(=O)O)ncc1C(=O)O (centres undefined)
The k el of the first is 6.5-fold higher: 0.000361 s⁻¹ for the first, 5.56e-05 s⁻¹ for the second.

Compared with `O=C(Nc1ccc(CC(Nc2ccc(Cl)cn2)C(=O)O)cc1)c1c(Cl)cncc1Cl` (centres undefined), `CCC[S+]([O-])c1cc(NC(Cc2ccc(NC(=O)c3c(Cl)cncc3Cl)cc2)C(=O)O)ncc1Cl` (centres undefined) is 23-fold higher in k el: 5.56e-05 s⁻¹ for the first, 0.00128 s⁻¹ for the second.

`CCCCCCS(=O)(=O)c1nc(N[C@@H](Cc2ccc(NC(=O)c3c(Cl)cncc3Cl)cc2)C(=O)O)cc(C(=O)O)n1` and `CCCS(=O)(=O)c1nccc(N[C@@H](Cc2ccc(NC(=O)c3c(Cl)cncc3Cl)cc2)C(=O)O)n1` are within 1.5-fold of each other in k el: 0.000861 s⁻¹ for the first, 0.00122 s⁻¹ for the second.

`O=C(Nc1ccc(C[C@H](Nc2cc(S(=O)(=O)Cc3ccccc3)ncn2)C(=O)O)cc1)c1c(Cl)cncc1Cl` and `CCCS(=O)(=O)c1cc(N[C@@H](Cc2ccc(NC(=O)c3c(Cl)cncc3Cl)cc2)C(=O)O)ncn1` are within 1.5-fold of each other in k el: 0.00144 s⁻¹ for the first, 0.00122 s⁻¹ for the second.

`CS(=O)(=O)c1cc(N[C@@H](Cc2ccc(NC(=O)c3c(Cl)cncc3Cl)cc2)C(=O)O)ncn1` and `CCC[S+]([O-])c1cc(N[C@@H](Cc2ccc(NC(=O)c3c(Cl)cncc3Cl)cc2)C(=O)O)ncn1` (some centres undefined) are within 1.5-fold of each other in k el: 0.00111 s⁻¹ for the first, 0.00119 s⁻¹ for the second.

Going from `CCCS(=O)(=O)c1cc(NC(Cc2ccc(NC(=O)c3c(Cl)cncc3Cl)cc2)C(=O)O)ncc1Cl` (centres undefined) to `CCCS(=O)(=O)c1ccnc(NC(Cc2ccc(NC(=O)c3c(Cl)cncc3Cl)cc2)C(=O)O)c1` (centres undefined), the k el rises from 0.000583 s⁻¹ to 0.00144 s⁻¹ (2.5-fold).

Work on `COc1cc(N[C@@H](Cc2ccc(NC(=O)c3c(Cl)cncc3Cl)cc2)C(=O)O)nc(S(C)(=O)=O)n1` yielded a k el of 0.00136 s⁻¹.
